Measurements published in patent publication US7410757B1, “Method of screening disease depressant gene” (Keio University, priority 1999, dated 2008).
“Also recorded” adds a separate entry of the source. No end group written: not given here.

Experiments:
[1] = test system: F11/EcR cells; test: F11/EcR cell death caused by ecdysone-induced expression of polyglutamine Q79, trypan blue exclusion assay; format: cell-based; details: 1 μM polypeptide, ecdysone 72 h
Protocol: F11/EcR cell experiment using ecdysone was conducted as follows: F11/EcR cells were seeded at 7×10^4/well into a 6-well plate; cultured for 12 to 16 hours in HamF-12 media containing 18% FBS; and were similarly transfected in the absence of serum for 3 hours with 1 μg of ecdysone-inducible plasmid alone, or with 1 μg of HN-encoding plasmid, as mentioned above. After culturing for 12 to 16 hours in HamF-12 media containing 18% FBS, the cells were cultured for 2 hours in HamF-12 media containing 10% FBS, then ecdysone (Ponasterone) was added to the media (final concentration of 40 μM). Cell death was measured 72 hours after ecdysone treatment. Experiments using synthetic HN polypeptides were conducted as follows: cells were similarly transfected for 3 hours with FAD genes in the absence of serum; cultured for 12 to 16 hours in HamF-12 media containing 18% FBS; cultured for 2 hours in HamF-12 media containing 10% FBS and various concentrations of HN polypeptide; and then, 40 μM Ponasterone was added to the media. Cell death was measured by trypan blue exclusion assay after 72 hours from the ecdysone treatment. HD/SCA-associated Q79 cDNAs were also similarly transfected, and the neurotoxicity was tested.
(§1) Trypan blue exclusion assay was performed as follows. […] Within 3 minutes of the trypan blue solution addition, stained cells were counted. Cell mortality was determined [100−cell survival rate (%)] based on the stained cell count. […] Specifically, 6 μM Calcein-AM {3′,6′-Di-(O-acetyl)-2′,7′-bis[N,N-bis(carboxymethyl)aminomethyl]fluorescein, tetraacetoxymethyl ester; Dojindo, Cat. #349-07201} was added to the neurons; and 30 minutes or longer after Calcein-AM treatment, fluorescence (ex=490 nm, em=515 nm) was observed by fluorescence microscopy, and measured by a spectrometer. Specific fluorescence was calculated by subtracting basal fluorescence from total fluorescence. Basal fluorescence was assigned to be the value calculated from linear trypan blue positivity-fluorescence intensity relationship, corresponding to 100% trypan blue positivity.

[2] = test system: primary cultured cortical neurons; test: Aβ1-43-induced cell death of primary cultured cortical neurons (trypan blue, LDH release, Calcein-AM, morphology); format: cell-based, mouse; details: for effect on Aβ-induced cell death and dystrophic neuritic changes of the axon: 25 μM Aβ1-43, 72 h
Protocol: Primary culture of mouse cortical neurons was performed in poly-D-lysine-coated 24-well plates (Sumitomo Bakelite) in the absence of serum and in the presence of N2 supplement, as described in literature (Eksioglu, Y. Z. et al. (1994) Brain Res. 644, 282-90). The purity of neurons prepared according to the method was >98%. The prepared neurons (1.25×10^5/well, 250 μl media/well) were preincubated in the absence or presence of 10 nM or 10 μM sHN polypeptides for 16 hours; and were treated with 25 μM Aβ1-43 in the absence or presence of sHN polypeptides at the same concentrations for 24 to 72 hours. Since primary cultured neurons are damaged even by temporary dryness during medium exchange, treatment of the cells by Aβ1-43 was performed as follows. First, half of the volume of the old medium (125 μl) was discarded. Then, 125 μl of pre-warmed fresh medium containing 50 μM Aβ1-43 and sHN with a concentration indicated above were added to the culture.
(§2) Trypan blue exclusion assay was performed as follows. Without prewashing, the cells were suspended with gentle pipetting into a serum-free media. 50 μl of 0.4% trypan blue solution (Sigma, Cat. #T-8154) were added (final concentration of 0.08%) to 200 μl cell suspension, and the suspension was mixed at room temperature. Within 3 minutes of the trypan blue solution addition, stained cells were counted. Cell mortality was determined [100−cell survival rate (%)] based on the stained cell count. LDH assay was performed using a kit (LDH-Cytotoxic Test; Wako Pure Chemical Industries, Cat. #299-50601) by sampling 6 μl of media in which neurons were cultured. Calcein staining was performed as described in literature (Bozyczko-Coyne, D. et al. (1993) Journal of Neuroscience Methods 50, 205-216). Specifically, 6 μM Calcein-AM {3′,6′-Di-(O-acetyl)-2′,7′-bis[N,N-bis(carboxymethyl)aminomethyl]fluorescein, tetraacetoxymethyl ester; Dojindo, Cat. #349-07201} was added to the neurons; and 30 minutes or longer after Calcein-AM treatment, fluorescence (ex=490 nm, em=515 nm) was observed by fluorescence microscopy, and measured by a spectrometer. Specific fluorescence was calculated by subtracting basal fluorescence from total fluorescence. Basal fluorescence was assigned to be the value calculated from linear trypan blue positivity-fluorescence intensity relationship, corresponding to 100% trypan blue positivity.

[3] = test system: F11 cells; test: F11 cell death induced by transfection of FAD genes, trypan blue exclusion assay; format: cell-based
Protocol: (§3) F11 cells (Platika, D. et al. (1985) Proc. Natl. Acad. Sci. U.S.A. 82, 3499-3503; Yamatsuji, T. et al. (1996) Science 272, 1349-1352) were cultured in HamF-12 media containing 18% fetal bovine serum (FBS) and antibiotics. 7×10^4/well of F11 cells were seeded into a 6-well plate; cultured in HamF-12 containing 18% FBS for 12 to 16 hours; transfected 3 hours with plasmids encoding FAD genes and plasmids encoding HN (pHN, and such) by lipofection in the absence of serum (1 μg of FAD cDNA expression plasmid, 1 μg of HN cDNA expression plasmid, 4 μl of LipofectAMINE, 8 μl of Plus reagent); and then, were cultured for 2 hours in HamF-12 media containing 18% FBS. Then, culture media were exchanged with HamF-12 media containing 10% FBS; and the cells were cultured for additional 67 hours. 72 hours after transfection, cell death was measured by trypan blue exclusion assay. Experiments using synthetic HN polypeptides were conducted as follows: F11 cells (at 7×10^4/well in a 6-well plate) were transfected 3 hours with FAD genes in the absence of serum, as mentioned above; after cultivation for 2 hours in HamF-12 media containing 18% FBS, the cells were cultured for 67 hours in HamF-12 media containing 10% FBS with various concentrations of HN polypeptides; and cell death was measured by trypan blue exclusion assay. ALS-associated mutant cDNAs of SOD1 were also similarly transfected, and examined for their neurotoxicity.
as §2

[4] = test system: F11 cells; test: F11 cell death induced by ALS-associated SOD1 mutants (A4T, G85R, G93A), trypan blue exclusion assay; format: cell-based; details: 100 μM polypeptide, G85R or G93A SOD1
Protocol: as §3
as §1, with “Basal fluorescence was assigned to be the value calculated from linear trypan blue positivity-fluorescence intensity relationship, corresponding to 100% trypan blue positivity.” left out

[5] = test system: F11/EcR cells; test: F11/EcR cell death caused by ecdysone-induced expression of FAD genes, trypan blue exclusion assay; format: cell-based; details: treated with 1M sHN (so in the source); NL-APP, V642I APP, M146L PS-1 or N141I PS-2; ecdysone 72 h
Protocol: F11/EcR cell experiment using ecdysone was conducted as follows: F11/EcR cells were seeded at 7×10^4/well into a 6-well plate; cultured for 12 to 16 hours in HamF-12 media containing 18% FBS; and were similarly transfected in the absence of serum for 3 hours with 1 μg of ecdysone-inducible plasmid alone, or with 1 μg of HN-encoding plasmid, as mentioned above. After culturing for 12 to 16 hours in HamF-12 media containing 18% FBS, the cells were cultured for 2 hours in HamF-12 media containing 10% FBS, then ecdysone (Ponasterone) was added to the media (final concentration of 40 μM). Cell death was measured 72 hours after ecdysone treatment. […] Cell death was measured by trypan blue exclusion assay after 72 hours from the ecdysone treatment. […]
Trypan blue exclusion assay was performed as follows. […] Within 3 minutes of the trypan blue solution addition, stained cells were counted. Cell mortality was determined [100−cell survival rate (%)] based on the stained cell count. […] Specifically, 6 μM Calcein-AM {3′,6′-Di-(O-acetyl)-2′,7′-bis[N,N-bis(carboxymethyl)aminomethyl]fluorescein, tetraacetoxymethyl ester; Dojindo, Cat. #349-07201} was added to the neurons; and 30 minutes or longer after Calcein-AM treatment, fluorescence (ex=490 nm, em=515 nm) was observed by fluorescence microscopy, and measured by a spectrometer. […]

[6] = test system: primary cultured neurons; test: Etoposide-induced cell death of primary cultured neurons (trypan blue, LDH release); format: cell-based, mouse; details: 10 μM polypeptide, 20 μM etoposide, 72 h
Protocol: 25 μM Aβ1-43 was added to primary cultured cortical neurons in the presence (at indicated concentrations) or absence of sHN, sHNG, or sHNA. Addition of HN polypeptides was performed similarly to that described in FIG. 12. 72 hours after the initiation of Aβ treatment, cell death was measured by trypan blue exclusion assay. Primary cultured neurons treated similarly for 72 hours with 20 μM etoposide in the presence or absence of 10 μM sHN or HN derivatives were used as the positive controls in these experiments. Similar experiments were performed at least three times, and reproducible results were obtained. Mean ±S.D. values of three independent experiments are indicated in the graphs.
Cell damage was monitored as the amount of LDH released into the culture media. […] 24, 48, or 72 hours after the initiation of Aβ treatment, the amount of LDH in the culture media was measured. LDH release from neurons treated with 20 μM etoposide in the presence or absence of HN polypeptides was also measured. […]
Trypan blue exclusion assay was performed as follows. […] Within 3 minutes of the trypan blue solution addition, stained cells were counted. Cell mortality was determined [100−cell survival rate (%)] based on the stained cell count. […] Specific fluorescence was calculated by subtracting basal fluorescence from total fluorescence. […]

[7] = 10 μM polypeptide, 25 μM Aβ1-43

MAPRGFSALLLLTSEIDLPVKRRA [sHNA] was tested, and the “effect of synthetic polypeptide on neuronal death induced by Q79” value (shortened to “effect of synthetic polypeptide … by Q79”) [1] was “Extensive cell death; also recorded: lack of effects”, the “effect on Aβ-induced cell death and dystrophic neuritic changes of the axon” value ([2]; 10 μM polypeptide) was “did not show any effect” and the “suppression of cell death induced by V642I APP” value ([3]; concentrations up to 100 μM) was “did not significantly suppress”. The “antagonism of cell death by NL-APP, M146L PS-1 and N141I PS-2” value ([3]; up to a concentration of 100 μM) was “did not antagonize” and the “effect of synthetic polypeptide on neuronal death induced by SOD1 mutants” value (from here on “effect … by SOD1 mutants”) [4] was “couldn't be suppressed; also recorded: lack of the effect”.

For “NGF: NGF tested at 100 ng/ml as comparator [reference compound]”, the “antagonism of cell death of neurons induced by Aβ” value ([2]; 100 ng/ml, data not shown) was “did not show effects to antagonize” and the “antagonism of increased LDH release induced by Aβ” value ([2]; 100 ng/ml, data not shown) was “did not show effects to antagonize”.

With MAPRGFSCLLLLTGEIDLPVKRRA [sHNG] the “effect of synthetic polypeptide … by Q79” value [1] was “Extensive cell death; also recorded: lack of effects”, the “effect on Aβ-induced cell death and dystrophic neuritic changes of the axon” value ([2]; 10 nM polypeptide) was “completely protected” and the “effect of synthetic polypeptide on cell death caused by ecdysone-induced expression of FAD genes” value [5] was “complete suppression”. The “concentration giving complete antagonizing effect on cell death induced by V642I APP” value ([3]; 72 h) was no more than 10 nM, the “concentration completely antagonizing neuronal death induced by all of the four different types of FAD genes” value ([3]; V642I APP, NL-APP, M146L PS-1, N141I PS-2) was no more than 10 nM and the “concentration completely suppressing cell death caused by NL-APP, M146L PS-1 and N141I PS-2” value ([3]; any of the FAD genes, 72 h) was no more than 10 nM. The “enhancement of the action of HN by S14G substitution” value ([3]; relative to original HN) was 100 to 1000 fold and the “effect … by SOD1 mutants” value [4] was “couldn't be suppressed; also recorded: lack of the effect”.

In the case of `CC[C@H](C)[C@H](NC(=O)[C@H](CCC(=O)O)NC(=O)[C@H](CO)NC(=O)[C@@H](NC(=O)[C@H](CC(C)C)NC(=O)[C@H](CC(C)C)NC(=O)[C@H](CC(C)C)NC(=O)[C@H](CC(C)C)NC(=O)[C@H](CS)NC(=O)[C@H](CO)NC(=O)[C@H](Cc1ccccc1)NC(=O)CNC(=O)[C@H](CCCNC(=N)N)NC(=O)[C@@H]1CCCN1C(=O)[C@H](C)NC(=O)[C@@H](N)CCSC)[C@@H](C)O)C(=O)N[C@@H](CC(=O)O)C(=O)N[C@@H](CC(C)C)C(=O)N1CCC[C@H]1C(=O)N[C@H](C(=O)N[C@@H](CCCCN)C(=O)N[C@@H](CCCNC(=N)N)C(=O)N[C@@H](CCCNC(=N)N)C(=O)N[C@@H](C)C(=O)O)C(C)C` [sHN], the “effect of synthetic polypeptide … by Q79” value [1] was “not suppressed; also recorded: lack of effects”, the “effect on Aβ-induced cell death and dystrophic neuritic changes of the axon” value ([2]; 10 nM polypeptide) was “did not show any effect” and the “cell damage (LDH released from the cells) after Aβ1-43 treatment” value [2, 7] was “completely restored to a level observed under basal conditions”. For the same molecule, the “cell death (trypan blue exclusion) after Aβ1-43 treatment” value [2, 7] was “completely restored to a level observed under basal conditions”, the “effect on Aβ-induced cell death and dystrophic neuritic changes of the axon” value ([2]; 10 μM polypeptide) was “dramatically suppressed” and the “prevention of the toxic effect of etoposide on primary cultured neurons” value [6] was “could not prevent”. The “effect of synthetic polypeptide on cell death caused by ecdysone-induced expression of FAD genes” value [5] was “complete suppression; also recorded: significant suppressive effect”, the “suppression of cell death induced by V642I APP” value ([3]; 10 nM polypeptide, 72 h) was “extremely weak suppression” and the “suppression of cell death induced by V642I APP” value ([3]; 10 μM polypeptide, 72 h) was “dramatically suppressed”. For the same molecule, the “concentration achieving complete suppression of cell death induced by V642I APP” value ([3]; 72 h) was 1 to 10 µM, the “concentration blocking neuronal death induced by NL-APP, M146L PS-1 and N141I PS-2” value ([3]; any of the three FAD genes, 72 h) was 1 µM and the “effect … by SOD1 mutants” value [4] was “couldn't be suppressed; also recorded: lack of the effect”.
